Measured values: patent US20230414626A1, “INDUCTION OF FERROPTOSIS FOR CANCER THERAPY” (Memorial Sloan Kettering Cancer Center, priority 2020, published 2023)

Key:
NRF2 = test: Western blot of NRF2; format: cell-based, human; conditions: BT474 cells, 8 h; RSL3 0.5 μM; Torin 1 μM
Description: FIG. 3 A-E. NRF2 is not the major mediator of the ferroptosis-suppressing activity of mTORC1. (A) BT474 cells were treated as indicated for 8 h. RSL3, 0.5 μM; Torin, 1 μM. Western blot was performed to measure […], total S6K and NRF2. (B) NRF2 was depleted by CRISPR/Cas9 technology in HT1080 cells. NRF2 level was measured by western blot. (C) Control or NRF2-depleted cells were treated as indicated. Erastin, 0.5 μM; RSL3, 25 nM. (D) HepG2 cells with or without NRF2 depletion were treated with cysteine starvation with or without CCI-779 (0.5 μM) as indicated. Sytox Green were added after 48 h for cell death staining (scale bar, 100 m). (E) PC-3 cells with or without NRF2 depletion were treated with cysteine starvation with or without CCI-779 (0.5 μM) as indicated. Sytox Green were added after 48 h for cell death staining (scale bar, 100 m).
Cell lysates were resolved on SDS-PAGE gels and transferred to a nitrocellulose membranes. The membranes were incubated in 5% skim milk for 1 hour at room temperature and then incubated with primary antibodies diluted in blocking buffer at 4° C. overnight. […]

SREBP1 (SREBP1m) = test: Western blot of mature SREBP1; format: cell-based, human; conditions: RSL3-resistant cancer cells (BT474, MDA-MB-453, MCF7); CCI-779 0.5 μM
Description: FIG. 4 A-F. mTORC1 activation suppresses ferroptosis by upregulating SREBP1. (A) BT474 and MDA-MB-453 cells were treated as indicated. RSL3, 0.5 μM; CCI-779, 0.5 μM. Cell lysates were collected after 8 h and 24 h of treatment for BT474 cells and MDA-MB-453 cells, respectively, for western blot detecting […], total S6K, unprocessed SREBP1 (SREBP1(p)) and processed, mature SREBP1 (SREBP1(m)). (B) Cells were treated as indicated. RSL3, 0.5 μM for BT474 cells and 1 μM for MDA-MB-453 cells; Fer-1, 1 μM. (C) Cells were treated as in panel B. Lipid peroxidation was measured. (D) 3D spheroids derived from BT474 cells harboring control or SREBF1 sgRNA were treated as indicated. CCI-779, 0.5 μM; RSL3, 0.5 μM; Fer-1, 1 μM. Top, cell death stained by Sytox Green (scale bar, 100 μm). Bottom, cell viability. (E) SREBP1m was overexpressed in BT474 cells and determined by western blot. Cells were treated as indicated. RSL3, 0.5 μM; CCI-779, 0.5 μM. Cell death was measured (bottom panel). (F) 3D spheroids derived from BT474 cells were treated as indicated. RSL3, 0.5 μM; CCI-779, 0.5 μM; Fer-1, 1 μM. Top, cell death stained by Sytox Green (scale bar, 100 m). […]
FIG. 9 A-F. SREBP1 protects cells from ferroptosis. […] (C) Efficiency of SREBF1 Knockout in BT474, MDA-MB-453, and MCF7 cells was monitored by western blot. […] (F) SREBP1m was overexpressed in MCF7, MDA-MB-453 and A549 cells and determined by western blot. […]

Compound	RSL3-induced NRF2 accumulation (NRF2)	level of the mature form of SREBP1 (SREBP1m) (SREBP1 (SREBP1m))
CCC(=O)N1CCN(c2ccc(-n3c(=O)ccc4cnc5ccc(-c6cnc7ccccc7c6)cc5c43)cc2C(F)(F)F)CC1 [Torin]	ablated	–
CO[C@H]1C[C@@H]2CC[C@@H](C)[C@@](O)(O2)C(=O)C(=O)N2CCCC[C@H]2C(=O)O[C@H]([C@H](C)C[C@@H]2CC[C@@H](OC(=O)C(C)(CO)CO)[C@H](OC)C2)CC(=O)[C@H](C)/C=C(\C)[C@@H](O)[C@@H](OC)C(=O)[C@H](C)C[C@H](C)/C=C/C=C/C=C/1C [CCI-779, Temsirolimus]	–	decreased
